Test results: ChEMBL document CHEMBL1154483, “Mechanistic aspects of benzothiazepines: a class of antiarrhythmic drugs” (Eur J Med Chem, 2009)

Test: Inhibition of calcium channel

| Compound | IC50 [nM] |
| --- | --- |
| COc1ccc([C@@H]2Sc3ccccc3N(CCN(C)CCc3ccc(OC)c(OC)c3)C(=O)[C@@H]2OC(C)=O)cc1 | 6.5 |
| COc1ccc([C@@H]2Sc3ccccc3N(CCN(C)C)C(=O)[C@@H]2OC(C)=O)cc1 [DILTIAZEM] | 337 |
